This is an account of results in ChEMBL document CHEMBL1201862, “PubChem BioAssay data set” (2004).

As usually defined, the AC50 is the concentration at which the activity in the assay is half-maximal. What is called EC50 is the midpoint of the concentration-response curve.

Test [1] in a line: inhibitors of HIV Env-driven cell fusion, dose response, cherry-pick (AID 652057). In kind it is functional, cell-based.
A short description of test [2]: ZM109 Env clade C HIV-1 fusion inhibitors, dose response, HeLa effector, CEM target cells, luciferase, cherry-pick (AID 652058). It counts as functional, cell-based.
Test [3] is described as follows: inhibitors of clade B AD8 Env fusion, dose response, cell-based, cherry-pick (AID 652062).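 Further: luciferase signal from cell-cell fusion driven by HIV-1 clade B AD8 Env; potency is for inhibitors of fusion seen as a drop in luminescence.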 It counts as functional.
Test [4] addresses T1, Polyadenylate-binding protein 1 (Homo sapiens, UniProt P11940). As to the kind of experiment: PABP1 MLLE–PAM2 interaction inhibitors, dose response, miRNA deadenylation inhibitor project, biochemical, fluorescence polarization, Cy5-PAM2 peptide, secondary (AID 602260). It counts as functional. The settings on record: read-out: IC50_Mean. For orientation: Polarisation of emitted light reports the rotation of a fluorescent probe.

In test [5] the target is T1, Polyadenylate-binding protein 1. As to the kind of experiment: PABP1 MLLE–PAM2 binding inhibitor potency, dose response, biochemical, fluorescence polarization, FITC-PAM2 peptide (AID 602259). In kind it is functional. The following applies: read-out: IC50_Mean.
Test [6] addresses T2, Fatty acid synthase (Homo sapiens, UniProt P49327). As to the kind of experiment: FAS thioesterase domain inhibitors, dose response, biochemical, endpoint fluorescence intensity, uHTS hits (AID 624327).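 Further: fluorescence from hydrolysis of an O-methyl fluorescein acyl ester substrate by the enzyme.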 It counts as functional.
The target in test [7] is T2, Fatty acid synthase. Description: FAS thioesterase domain inhibitors, dose response, biochemical, kinetic fluorescence intensity (AID 624326).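 Further: rate of fluorescence rise from hydrolysis of a fluorogenic O-methyl fluorescein ester substrate.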 In kind it is functional.
Test [8] has as its target Induced myeloid leukemia cell differentiation protein Mcl-1 (Homo sapiens, UniProt Q07820). It counts as functional.
In test [9] the target is T3, Replicative DNA helicase DnaB (Mycobacterium tuberculosis, UniProt P9WMR3).
T3 sequence (P9WMR3 whole entry): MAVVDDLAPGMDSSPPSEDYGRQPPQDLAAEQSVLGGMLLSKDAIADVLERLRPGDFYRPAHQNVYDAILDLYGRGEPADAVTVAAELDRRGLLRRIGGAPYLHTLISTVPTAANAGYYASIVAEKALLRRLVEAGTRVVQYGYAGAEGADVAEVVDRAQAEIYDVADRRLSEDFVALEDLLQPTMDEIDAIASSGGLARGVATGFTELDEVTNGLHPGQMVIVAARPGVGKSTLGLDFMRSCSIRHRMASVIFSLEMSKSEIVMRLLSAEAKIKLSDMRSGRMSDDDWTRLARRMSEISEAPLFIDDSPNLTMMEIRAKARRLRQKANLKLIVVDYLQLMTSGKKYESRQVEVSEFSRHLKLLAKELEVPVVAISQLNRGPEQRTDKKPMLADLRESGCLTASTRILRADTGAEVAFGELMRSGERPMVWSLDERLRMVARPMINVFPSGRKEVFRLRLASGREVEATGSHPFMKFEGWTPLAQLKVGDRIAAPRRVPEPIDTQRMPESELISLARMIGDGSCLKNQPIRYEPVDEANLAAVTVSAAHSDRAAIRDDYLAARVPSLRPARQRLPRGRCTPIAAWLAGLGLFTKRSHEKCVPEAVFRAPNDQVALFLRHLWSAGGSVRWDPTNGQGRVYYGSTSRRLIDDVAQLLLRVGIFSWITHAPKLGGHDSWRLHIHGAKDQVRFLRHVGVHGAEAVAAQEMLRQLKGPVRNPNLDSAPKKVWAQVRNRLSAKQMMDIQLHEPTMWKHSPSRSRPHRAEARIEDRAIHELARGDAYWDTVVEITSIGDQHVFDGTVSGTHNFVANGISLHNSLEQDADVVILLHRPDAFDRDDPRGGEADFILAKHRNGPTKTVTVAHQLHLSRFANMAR
As to the kind of experiment: DnaB intein splicing inhibitors, dose response, biochemical, cell-free fluorescence (AID 449749). In kind it is functional.

A further test deals with T4, Protein RecA (Mycobacterium tuberculosis, UniProt P9WHJ3).
T4 sequence (P9WHJ3 whole entry): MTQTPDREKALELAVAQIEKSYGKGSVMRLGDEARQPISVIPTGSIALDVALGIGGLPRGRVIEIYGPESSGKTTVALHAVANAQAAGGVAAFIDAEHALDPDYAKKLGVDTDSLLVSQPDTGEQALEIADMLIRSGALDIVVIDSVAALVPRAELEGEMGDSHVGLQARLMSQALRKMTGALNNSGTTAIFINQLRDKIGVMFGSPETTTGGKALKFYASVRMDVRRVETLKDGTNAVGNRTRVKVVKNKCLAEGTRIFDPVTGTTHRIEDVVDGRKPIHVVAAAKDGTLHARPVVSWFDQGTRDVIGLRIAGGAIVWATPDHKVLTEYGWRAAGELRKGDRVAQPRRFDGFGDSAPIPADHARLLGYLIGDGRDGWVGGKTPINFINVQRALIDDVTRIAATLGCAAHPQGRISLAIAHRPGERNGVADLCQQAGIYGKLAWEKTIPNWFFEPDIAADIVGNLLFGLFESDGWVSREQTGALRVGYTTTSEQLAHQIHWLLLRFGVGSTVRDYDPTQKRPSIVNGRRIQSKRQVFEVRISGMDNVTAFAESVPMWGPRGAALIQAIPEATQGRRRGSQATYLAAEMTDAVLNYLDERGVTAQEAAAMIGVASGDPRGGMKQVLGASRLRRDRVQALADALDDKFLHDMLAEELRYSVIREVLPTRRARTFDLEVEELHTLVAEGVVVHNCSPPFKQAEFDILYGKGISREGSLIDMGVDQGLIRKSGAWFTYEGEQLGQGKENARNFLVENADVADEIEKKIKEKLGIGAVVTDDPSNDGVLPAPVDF
Description: Fluorescence Cell-Free Homogeneous Dose Retest to Identify Inhibitors of RecA-Intein Splicing Activity. [Related pubchem assays (depositor defined):AID2097, AID2223, AID489010, AID492950]. It counts as functional.

Test [10] has as its target Heat shock protein HSP 90-alpha (Homo sapiens, UniProt P07900). It counts as functional, organism-based.
The target of test [11] is Luciferin 4-monooxygenase (Photinus pyralis, UniProt P08659). As to the kind of experiment: firefly luciferase enzyme inhibitors, dose response, biochemical, luminescence (AID 1891).
The nature of test [12]: Luminescence Cell-Based Dose Confirmation HTS to Identify Inhibitors of Platelet Dense Granule Release. [Related pubchem assays: 1663 (Primary HTS), 1678 (Summary of Project)]. In kind it is functional.
A short description of test [13]: LGR2 antagonists, dose response, cell-based, HEK293, CRE-luciferase reporter, cherry pick, set 2 (AID 743343).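 Further: transfected cells were stimulated with diluted bursicon conditioned medium after compound addition.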 In kind it is functional. (In a reporter assay the amount or activity of a reporter protein is the signal.)
A short description of test [14]: MC4R antagonists, dose response, counter-screen for LGR2 antagonist project, cell-based, plate reader, cherry pick (AID 743444).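 Further: transfected HEK 293 cells stimulated with alpha-MSH peptide; potency of inhibitors of the alpha-MSH evoked signal.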 It counts as functional. Background: The purpose of a counterscreen is to sort out artefacts and off-target activity.
For the next test, the target named is T5, Estrogen receptor (Homo sapiens, UniProt P03372).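 Further: potency for inhibiting coactivator peptide recruitment to the receptor.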
T5 sequence (P03372 whole entry): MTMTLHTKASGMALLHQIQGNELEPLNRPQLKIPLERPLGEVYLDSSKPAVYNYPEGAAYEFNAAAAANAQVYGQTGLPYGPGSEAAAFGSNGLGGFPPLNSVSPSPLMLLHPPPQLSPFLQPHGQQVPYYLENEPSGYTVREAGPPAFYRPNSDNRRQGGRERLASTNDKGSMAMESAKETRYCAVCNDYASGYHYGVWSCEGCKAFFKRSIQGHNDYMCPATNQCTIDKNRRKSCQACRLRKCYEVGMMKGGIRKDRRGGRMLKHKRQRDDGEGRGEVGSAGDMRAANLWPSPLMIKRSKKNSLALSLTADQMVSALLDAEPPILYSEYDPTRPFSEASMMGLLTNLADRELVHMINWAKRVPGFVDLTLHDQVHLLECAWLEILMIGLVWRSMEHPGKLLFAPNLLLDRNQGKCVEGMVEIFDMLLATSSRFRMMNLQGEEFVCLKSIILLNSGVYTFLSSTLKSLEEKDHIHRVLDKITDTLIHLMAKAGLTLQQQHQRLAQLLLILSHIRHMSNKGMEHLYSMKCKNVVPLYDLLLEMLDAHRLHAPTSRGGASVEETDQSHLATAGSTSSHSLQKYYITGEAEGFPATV

Test [15] in a line: inhibitors of intracellular T. cruzi replication, confirmation, NIH3T3 host cells, beta-gal luminescence (AID 2044).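 Further: intracellular parasites grown in NIH/3T3 mouse fibroblasts as host cells; luminescent beta-galactosidase reporter signal from transgenic T. cruzi replicating inside host cells; inhibitors lower the luminescence signal.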 It counts as functional, cell-based.
Test [16] in a line: cytotoxicity toward NIH3T3 fibroblasts, dose response, counter-screen, cell-based, ATP luminescence, mouse fibroblasts (AID 2010).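 Further: cells exposed to compound for about 90 hours before reading.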 It counts as functional.

Each structure is given as a SMILES string. The source made the active and inactive calls. Some results are limits rather than exact numbers.

Chain of Induced myeloid leukemia cell differentiation protein Mcl-1 (Q07820 whole entry): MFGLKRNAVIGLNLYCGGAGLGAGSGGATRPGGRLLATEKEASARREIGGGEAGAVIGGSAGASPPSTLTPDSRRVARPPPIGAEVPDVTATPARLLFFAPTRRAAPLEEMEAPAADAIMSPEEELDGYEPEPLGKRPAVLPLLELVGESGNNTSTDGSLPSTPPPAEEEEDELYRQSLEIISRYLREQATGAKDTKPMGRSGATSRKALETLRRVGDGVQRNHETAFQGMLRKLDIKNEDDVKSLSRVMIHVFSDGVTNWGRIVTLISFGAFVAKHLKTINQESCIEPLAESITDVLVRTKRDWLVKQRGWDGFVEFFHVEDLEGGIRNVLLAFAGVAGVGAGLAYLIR
T2 sequence (P49327 whole entry, the tested form may be a part): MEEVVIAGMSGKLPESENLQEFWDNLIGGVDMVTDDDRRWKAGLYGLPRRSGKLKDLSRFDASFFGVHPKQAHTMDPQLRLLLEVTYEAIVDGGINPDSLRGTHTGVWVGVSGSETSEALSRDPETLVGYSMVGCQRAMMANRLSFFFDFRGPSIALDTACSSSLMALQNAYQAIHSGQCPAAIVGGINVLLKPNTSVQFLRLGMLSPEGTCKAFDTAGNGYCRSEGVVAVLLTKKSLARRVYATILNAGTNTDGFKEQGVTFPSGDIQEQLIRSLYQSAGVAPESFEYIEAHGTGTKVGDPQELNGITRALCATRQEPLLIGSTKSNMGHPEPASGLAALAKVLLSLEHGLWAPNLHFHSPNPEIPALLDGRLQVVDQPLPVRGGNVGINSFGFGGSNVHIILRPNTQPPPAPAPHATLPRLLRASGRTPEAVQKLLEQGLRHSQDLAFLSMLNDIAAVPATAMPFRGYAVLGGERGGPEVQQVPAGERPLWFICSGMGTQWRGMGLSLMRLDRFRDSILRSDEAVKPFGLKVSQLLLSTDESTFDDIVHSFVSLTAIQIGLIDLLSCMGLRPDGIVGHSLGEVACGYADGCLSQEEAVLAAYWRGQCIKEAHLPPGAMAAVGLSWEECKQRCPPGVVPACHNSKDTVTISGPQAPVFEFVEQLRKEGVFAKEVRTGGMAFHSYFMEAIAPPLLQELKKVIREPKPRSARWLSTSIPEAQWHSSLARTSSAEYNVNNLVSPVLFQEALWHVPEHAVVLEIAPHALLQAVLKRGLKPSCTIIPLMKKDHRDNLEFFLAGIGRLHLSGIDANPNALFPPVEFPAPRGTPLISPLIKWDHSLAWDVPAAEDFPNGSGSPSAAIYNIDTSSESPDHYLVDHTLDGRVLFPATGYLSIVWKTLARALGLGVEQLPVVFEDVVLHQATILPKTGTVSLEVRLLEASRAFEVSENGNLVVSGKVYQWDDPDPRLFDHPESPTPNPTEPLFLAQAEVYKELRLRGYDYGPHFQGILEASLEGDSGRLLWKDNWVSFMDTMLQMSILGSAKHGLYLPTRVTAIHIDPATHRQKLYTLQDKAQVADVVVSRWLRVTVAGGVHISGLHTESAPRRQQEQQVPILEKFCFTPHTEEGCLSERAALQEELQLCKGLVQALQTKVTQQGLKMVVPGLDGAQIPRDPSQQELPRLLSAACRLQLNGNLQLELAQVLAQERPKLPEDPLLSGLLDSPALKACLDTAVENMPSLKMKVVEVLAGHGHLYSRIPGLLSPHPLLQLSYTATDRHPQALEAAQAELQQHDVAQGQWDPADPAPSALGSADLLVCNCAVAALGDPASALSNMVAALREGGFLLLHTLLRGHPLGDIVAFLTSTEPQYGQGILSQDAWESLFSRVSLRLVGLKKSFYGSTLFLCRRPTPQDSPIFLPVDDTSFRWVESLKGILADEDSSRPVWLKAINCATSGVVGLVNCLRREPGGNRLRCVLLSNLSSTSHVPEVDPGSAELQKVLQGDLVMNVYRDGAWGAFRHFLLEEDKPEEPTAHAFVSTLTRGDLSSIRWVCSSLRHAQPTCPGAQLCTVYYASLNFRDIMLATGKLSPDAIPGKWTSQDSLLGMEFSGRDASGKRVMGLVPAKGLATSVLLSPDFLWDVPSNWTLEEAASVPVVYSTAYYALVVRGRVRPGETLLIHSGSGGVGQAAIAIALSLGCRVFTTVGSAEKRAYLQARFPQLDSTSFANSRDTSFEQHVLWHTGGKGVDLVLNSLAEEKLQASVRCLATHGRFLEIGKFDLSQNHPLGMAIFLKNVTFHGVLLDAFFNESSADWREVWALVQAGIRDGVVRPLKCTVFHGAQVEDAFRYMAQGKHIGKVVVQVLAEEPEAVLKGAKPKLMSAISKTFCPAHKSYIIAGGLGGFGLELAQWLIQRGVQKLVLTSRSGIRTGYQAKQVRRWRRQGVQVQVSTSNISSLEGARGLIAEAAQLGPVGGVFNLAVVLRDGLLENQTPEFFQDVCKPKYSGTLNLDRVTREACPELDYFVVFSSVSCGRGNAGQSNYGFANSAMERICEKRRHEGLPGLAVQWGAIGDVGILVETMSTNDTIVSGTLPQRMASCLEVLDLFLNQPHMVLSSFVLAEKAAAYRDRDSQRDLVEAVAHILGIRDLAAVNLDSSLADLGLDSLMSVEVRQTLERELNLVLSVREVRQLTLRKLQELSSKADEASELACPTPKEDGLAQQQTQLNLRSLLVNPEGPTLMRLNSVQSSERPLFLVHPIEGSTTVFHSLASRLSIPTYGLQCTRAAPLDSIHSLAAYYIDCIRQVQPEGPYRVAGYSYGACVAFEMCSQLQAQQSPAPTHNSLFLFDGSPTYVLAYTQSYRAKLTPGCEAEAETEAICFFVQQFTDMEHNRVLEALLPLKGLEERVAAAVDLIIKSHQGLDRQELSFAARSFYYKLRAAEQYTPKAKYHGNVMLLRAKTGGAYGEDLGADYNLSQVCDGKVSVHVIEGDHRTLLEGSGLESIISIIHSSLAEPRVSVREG
T1 sequence (P11940 whole entry): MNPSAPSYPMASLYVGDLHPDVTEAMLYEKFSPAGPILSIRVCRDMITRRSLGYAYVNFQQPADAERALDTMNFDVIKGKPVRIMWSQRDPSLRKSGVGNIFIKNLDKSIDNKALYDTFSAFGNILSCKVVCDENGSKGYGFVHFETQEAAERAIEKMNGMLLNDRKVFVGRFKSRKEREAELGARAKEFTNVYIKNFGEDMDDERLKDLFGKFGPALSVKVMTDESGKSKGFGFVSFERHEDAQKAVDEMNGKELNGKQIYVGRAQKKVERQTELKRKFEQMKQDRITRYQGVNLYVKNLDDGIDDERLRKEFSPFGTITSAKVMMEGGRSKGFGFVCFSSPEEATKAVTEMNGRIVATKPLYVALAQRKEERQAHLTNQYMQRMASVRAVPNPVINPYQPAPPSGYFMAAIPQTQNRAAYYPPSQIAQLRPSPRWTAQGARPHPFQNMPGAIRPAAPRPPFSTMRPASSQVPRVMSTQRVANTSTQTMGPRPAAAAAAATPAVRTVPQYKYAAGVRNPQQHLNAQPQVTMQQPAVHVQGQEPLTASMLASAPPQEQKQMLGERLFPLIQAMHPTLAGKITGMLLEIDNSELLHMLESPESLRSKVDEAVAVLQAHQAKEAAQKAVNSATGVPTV
Chain of Luciferin 4-monooxygenase (P08659 whole entry): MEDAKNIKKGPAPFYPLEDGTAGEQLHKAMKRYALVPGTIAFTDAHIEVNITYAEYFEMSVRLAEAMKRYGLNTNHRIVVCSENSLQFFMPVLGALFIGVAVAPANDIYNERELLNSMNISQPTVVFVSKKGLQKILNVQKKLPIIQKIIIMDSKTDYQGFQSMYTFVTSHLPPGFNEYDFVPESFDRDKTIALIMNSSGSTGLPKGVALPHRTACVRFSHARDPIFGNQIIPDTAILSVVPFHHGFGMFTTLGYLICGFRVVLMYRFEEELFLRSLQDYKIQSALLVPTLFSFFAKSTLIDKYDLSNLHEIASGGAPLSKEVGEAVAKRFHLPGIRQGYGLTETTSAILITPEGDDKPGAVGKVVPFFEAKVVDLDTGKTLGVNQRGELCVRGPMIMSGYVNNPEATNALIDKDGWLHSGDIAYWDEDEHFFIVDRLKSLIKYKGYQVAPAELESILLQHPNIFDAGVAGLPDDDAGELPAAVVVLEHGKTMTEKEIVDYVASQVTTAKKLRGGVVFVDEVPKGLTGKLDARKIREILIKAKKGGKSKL

On to `Cc1noc(C)c1S(=O)(=O)N(C)C[C@@H]1Oc2ccc(NC(=O)Nc3cccc4ccccc34)cc2CC(=O)N([C@H](C)CO)C[C@@H]1C`, for which the AC50 in test [1] was < 0.285 µM (active); in test [2], < 0.285 µM (active); in test [3], 2.17 µM (active).
In the case of `Cn1nnc2c(C(N)=O)ncn2c1=O` [TEMOZOLOMIDE], the IC50 is > 66 µM (inactive) in test [4] and 43.4 µM (inactive) in test [5].
On to `C[C@H]1CN([C@@H](C)CO)C(=O)c2cc(NC(=O)Nc3ccc4c(c3)OCO4)ccc2O[C@H]1CN(C)S(=O)(=O)c1ccc(Cl)cc1`, for which the AC50 in test [1] was 1.49 µM (active); in test [2] it was 5.25 µM (active); in test [3], 14.5 µM (active).
On to `Cc1cc(-c2ccc(/C=N/n3cnnc3)o2)c(C)c([N+](=O)[O-])c1`, for which the IC50 is 12.5 µM (active) on Fatty acid synthase [6] and 9.46 µM (active) at Fatty acid synthase [7].
Take `CCC(=O)N(CC)C1=C(O)C(=O)c2ccccc2C1=O`: the IC50 in test [8] is 1.44 µM (active). The AC50 in test [9] was 14.5 µM (active). The EC50 on Protein RecA was 8.5 µM (active).
Consider `O=C1N=C(NNc2ccccc2)S/C1=C\c1ccccc1`, for which, in test [8], the IC50 is 4.76 µM (not active).
On to `COc1ccc(C(=O)COC(=O)c2cc([N+](=O)[O-])ccc2N2CCOCC2)c(OC)c1`, for which the AC50 in test [10] is 10.2 µM (active). The IC50 was 1.66 µM (active) on Fatty acid synthase [6] and 1.63 µM (active) at Fatty acid synthase [7].
For `CC1(C)N=C(SCC(=O)Nc2ccccc2)C(c2ccc(Cl)cc2)=N1`, the IC50 in test [4] and in test [5] was > 66 µM (inactive) in each case.
On to `COc1ccc(-c2nnc3n(CCc4ccccc4)c(=O)c4ccccc4n23)c(OC)c1`, for which the EC50 in test [11] and in test [12] was > 112 µM (not active) each time. The concentration at half-maximal activity (AC50) in test [10] was 7.83 µM (active).
`CCC(C)N/C=C1/C(=O)NC(=O)N(c2ccccc2)C1=O` (configuration not stated): the IC50 in test [4] and in test [5] was > 66 µM (inactive) throughout.
With `O=C(Nc1ccc(Cl)c(S(=O)(=O)N2CCOCC2)c1)c1ccc2c(c1)OCCO2`, the half-maximal activity concentration (AC50) in test [13] is 37.9 µM (active); in [14], 38.9 µM (active).
Regarding `CCOc1ccc(C(=O)Nc2cc(NC(=O)c3ccc(OCC)c(Cl)c3)cc(C(=O)O)c2)cc1Cl`, the IC50 in [8] is 14.3 µM (active).
Take `COC(=O)c1sc(=S)sc1C(=O)OC`: the IC50 in test [4] and in [5] was > 66 µM (inactive) throughout.
For `COc1ccc([N+](=O)[O-])cc1NC(=O)CC(c1ccccc1)c1ccccc1`, the IC50 was 60.1 µM (inactive) on Fatty acid synthase [6] and 32.8 µM (inactive) on Fatty acid synthase [7].
For the molecule `Cc1ccc(N2C(=O)CC(SCC(=O)Nc3ccc(S(N)(=O)=O)cc3)C2=O)cc1` (configuration not stated), the IC50 in [4] and in test [5] was > 66 µM (inactive) in each case.
With `Cn1cc(C(=O)NC2CCCCCC2)c(=O)c2cc(S(=O)(=O)N3CCCC3)ccc21`, the IC50 on Estrogen receptor is listed as > 50 µM (not active).
On to `COc1ccc(OC)c(NC(=O)c2cc(-c3ccc(C)cc3O)[nH]n2)c1`, for which, at Estrogen receptor, the IC50 is 22.1 µM (active).
For the molecule `CSc1ncc2c(n1)-c1cc(C)ccc1SC2`, the IC50 against Estrogen receptor is on record as > 50 µM (not active). Moreover, the EC50 was 0.135 µM (active) in [15] and > 30 µM (not active) in [16].
Take `C/C(=N\NC(=O)c1nnn(-c2nonc2N)c1-c1ccc(Cl)c(Cl)c1)c1ccncc1`: the figures for the IC50 at Fatty acid synthase [6] and on Fatty acid synthase [7] were 28 µM (inactive) and 20.9 µM (inactive), respectively.
For the molecule `CC(=O)n1c2ccccc2c2c1c1ccccc1n2C`, the IC50 in [4] and in test [5] was > 66 µM (inactive) in each case.
With `CCc1cnc(N2[C@@H](C#N)[C@H](c3ccc(C#Cc4ccccc4F)cc3)[C@@H]2CO)s1`, the values for the AC50 in [1], in [2] and in test [3] were 39.8 µM (active), 5.29 µM (active) and 24.4 µM (active), respectively.
Consider `CC(C)c1ccccc1NC(=O)COC(=O)c1cc([N+](=O)[O-])ccc1N1CCOCC1`, for which the results for the IC50 at Fatty acid synthase [6] and at Fatty acid synthase [7] were 2.95 µM (active) and 2.46 µM (active), respectively.
Consider `CCCCCCCCNC(=O)/C(C#N)=C/c1ccccc1[N+](=O)[O-]`, for which the AC50 is 1.98 µM (active) in test [9] and 4.28 µM (active) in [10]. In addition, on Protein RecA, the EC50 was 3.79 µM (active). In addition, the IC50 is 8.41 µM (active) on Fatty acid synthase [6] and 5.82 µM (active) at Fatty acid synthase [7].
